{"source": "PubChem BioAssay (NCI)", "assay_in_all_cases": "NCI tumour cell line growth inhibition, 48 h", "key": {"[1]": {"tested_on": "LXFL 529 NSCLC"}, "[2]": {"tested_on": "KM20L2 colon"}, "[3]": {"tested_on": "HOP-18 NSCLC"}, "[4]": {"tested_on": "RXF-631 renal"}, "[5]": {"tested_on": "DMS 273 small cell lung"}, "[6]": {"tested_on": "P388 leukemia"}, "[7]": {"tested_on": "SN12K1 renal"}, "[8]": {"tested_on": "P388/ADR leukemia"}}, "note": "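1) Cells in 96-well plates. 2) Compound, 48 h, 5 concentrations. 3) Linear interpolation between surrounding doses. 4) Unreached endpoint = highest concentration. TGI: total growth inhibition.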"}
{"smiles": "COc1cc(/C=N/N=C(\\N)NO)ccc1O", "values": [{"measurement": "TGI", "setting": "[1]", "result": "> 100", "unit": "µM"}]}
{"smiles": "CC(C)NC(=O)OCc1nnn2c1CCC2", "values": [{"measurement": "TGI", "setting": "[1]", "result": "> 100", "unit": "µM"}, {"measurement": "TGI", "setting": "[2]", "result": "> 100", "unit": "µM"}]}
{"smiles": "C1=Nc2ccccc2Cn2nncc21", "values": [{"measurement": "TGI", "setting": "[1]", "result": "> 100", "unit": "µM"}, {"measurement": "TGI", "setting": "[2]", "result": "> 100", "unit": "µM"}, {"measurement": "TGI", "setting": "[3]", "result": "> 100", "unit": "µM"}]}
{"smiles": "OC(c1ccccc1)C1CC2C=CC1C2", "note": "(stereo not given)", "values": [{"measurement": "TGI", "setting": "[4]", "result": "> 100", "unit": "µM"}, {"measurement": "TGI", "setting": "[5]", "result": "> 100", "unit": "µM"}, {"measurement": "TGI", "setting": "[1]", "result": "> 100", "unit": "µM"}]}
{"smiles": "CC1(CO)C(O)CCC2(C)C1C(O)CC1CC3CC12CCC3(O)CO", "note": "(stereo not given)", "values": [{"measurement": "TGI", "setting": "[5]", "result": "> 199", "unit": "µM"}, {"measurement": "TGI", "setting": "[6]", "result": "> 22.5", "unit": "µM"}, {"measurement": "TGI", "setting": "[7]", "result": "> 225", "unit": "µM"}, {"measurement": "TGI", "setting": "[2]", "result": "> 225", "unit": "µM"}, {"measurement": "TGI", "setting": "[3]", "result": "> 225", "unit": "µM"}, {"measurement": "TGI", "setting": "[8]", "result": "> 225", "unit": "µM"}]}
